From patent US6630499B1, “Control of arthropods in animals” (Aventis CropScience, S.A., priority 1998, dated 2003)

Experiments:
Type in all cases: in vivo
[1] = tested on: cat fleas (Ctenocephalides felis); assay: Control of cat fleas on treated cats (Biological Examples 1-3); conditions: 20 mg/kg; for % Control 1 DPT (Fleas): cats, 30 mg/mL in 1:1 dimethyl sulfoxide/corn oil, 1 day post-treatment, versus placebo group
Protocol: (§1) All dogs were infested with cat fleas (Ctenocephalides felis) and with ticks (Rhipicephalus sanguineus) 1 day prior to administration of the compound. Cats were only infested with fleas. The initial flea and tick counts were performed 1 day after the administration of the compounds. At 7, 14, 21 and 28 days after treatment the dogs were re-infested with ticks and 8, 15, 22 and 29 days after treatment the dogs and cats were re-infested with fleas. At 1, 9, 16, 23 and 30 days after treatment the control of fleas and ticks in treated dogs and cats was determined versus a group of infested dogs and cats which received a placebo consisting of a 1:1 volume/volume solution of dimethyl sulfoxide and corn oil. To determine the efficacies of the compounds, the arthropods were combed from the animals and counted.
(§2) The compounds listed below were formulated and tested as described in Biological Example 1, again at the dosage level of active ingredient of 10 mg/kg in dogs and 20 mg/kg in cats. Results at 1 DPT (day post-treatment) are tabulated below, where the compound numbers are the same as those listed in Tables 1, 2, 4, 5, 6, 7, 8, 9, 10, 11, 12 and 13 hereinabove.
(§3) Testing was carried out as described in Biological Example 1. […] The Huang et al compound was deemed to have insufficient activity to be tested in cats.

[2] = Emesis in treated cats; conditions: 20 mg/kg; for % Emesis: cats
Protocol: (§4) By the term “emesis” is meant vomiting. Generally an emetic substance elicits emesis in less than 24 hours after administration, usually less than 8 hours, more usually less than 2 hours. By the term “substantially non-emetic” is meant that, generally, when a compound or composition of the invention is administered to a population of animals, more than 70% (or at least ⅔) of the animals are free of emesis. Preferably, more than 80%, most preferably more than 90%, of said population is free of emesis.
(§5) In the animals treated with the compounds above, there was substantially no emesis after 2, 8 and 24 hours. Generally long-term control of fleas and ticks was provided in dogs. In the cats treated, there was commercially acceptable control of fleas for at least one day post treatment.
as §2

[3] = tested on: cat fleas (Ctenocephalides felis); assay: Control of cat fleas on treated dogs (Biological Examples 1-3); conditions: 10 mg/kg; for % Control 1 DPT (Fleas/Ticks): Fleas: dogs, 30 mg/mL in 1:1 dimethyl sulfoxide/corn oil, 1 day post-treatment, versus placebo group
Protocol: as §1, §2, §3

[4] = Emesis in treated dogs; conditions: 10 mg/kg; for % Emesis: dogs
Protocol: as §4, §5, §2

[5] = tested on: ticks (Rhipicephalus sanguineus); assay: Control of ticks on treated dogs (Biological Examples 1-3); conditions: 10 mg/kg; for % Control 1 DPT (Fleas/Ticks): Ticks: dogs, 30 mg/mL in 1:1 dimethyl sulfoxide/corn oil, 1 day post-treatment, versus placebo group
Protocol: as §1, §2, §3

Compound | % Control 1 DPT (Fleas) [1] | % Emesis [2] | % Control 1 DPT (Fleas/Ticks): Fleas [3] | % Emesis [4] | % Control 1 DPT (Fleas/Ticks): Ticks [5] | control of fleas for at least a one month period ([1]; group of 4 cats, at least one month) | vomiting ([2]; group of 4 cats) | control of fleas at 30 DPT ([3]; group of 3 dogs, 30 DPT) | emesis ([4]; group of 3 dogs) | control of ticks at 30 DPT ([5]; group of 3 dogs, 30 DPT)
CCOC(=O)N(C)c1c(SC(F)(F)F)c(C#N)nn1-c1c(Cl)cc(C(F)(F)F)cc1Cl [Compound 68-1, 3-cyano-1-(2,6-dichloro-4-trifluoromethylphenyl)-5-(N-ethoxycarbonyl-N-methyl)amino-4-trifluoromethylthiopyrazole] | 100% | 0% | 100% | 0% | 77% | – | – | – | – | –
CC(=O)O.N#Cc1nn(-c2c(Cl)cc(C(F)(F)F)cc2Cl)c(N=CNCC(F)(F)F)c1SC(F)(F)F [Compound 232] | 100% | 0% | 99% | 0% | 35% | – | – | – | – | –
CN(C(=O)C1CCCO1)c1c(SC(F)(F)F)c(C#N)nn1-c1c(Cl)cc(C(F)(F)F)cc1Cl (racemic) [Compound 1-7] | 100% | 25% | 100% | 0% | 97% | – | – | – | – | –
COCCOCC(=O)N(C)c1c(S(=O)(=O)C(F)(F)F)c(C#N)nn1-c1c(Cl)cc(C(F)(F)F)cc1Cl [Compound 120-1] | 100% | 0% | 97% | 0% | 78% | – | – | – | – | –
N#Cc1nn(-c2c(Cl)cc(C(F)(F)F)cc2Cl)c(N=CNCC(F)(F)F)c1SC(F)(F)F.O=C(O)CC(O)(CC(=O)O)C(=O)O [Compound 233] | 95% | 0% | 100% | 0% | 77% | – | – | – | – | –
CCOCC(=O)N(c1c(SC(F)(F)F)c(C#N)nn1-c1c(Cl)cc(C(F)(F)F)cc1Cl)C1CC1 [Compound 3-12] | 97% | 25% | 99% | 0% | 97% | – | – | – | – | –
CC(C)OCC(=O)N(C)c1c([S+]([O-])C(F)(F)F)c(C#N)nn1-c1c(Cl)cc(C(F)(F)F)cc1Cl (stereo not drawn) [Compound 4-3] | 100% | 25% | 100/100% | 33% | 100/100% | – | – | – | – | –
CN(C(=O)c1ccco1)c1c(SC(F)(F)F)c(C#N)nn1-c1c(Cl)cc(C(F)(F)F)cc1Cl [Compound 130-1] | 93% | 25% | 100/100% | 0% | 100/100% | – | – | – | – | –
CCN(C(=O)OC(C)C)c1c(SC(F)(F)F)c(C#N)nn1-c1c(Cl)cc(C(F)(F)F)cc1Cl [Compound 73-1] | 93% | 0% | 100/100% | 0% | 100/100% | – | – | – | – | –
COCC(=O)N(C)c1c([S+]([O-])C(F)(F)F)c(C#N)nn1-c1c(Cl)cc(C(F)(F)F)cc1Cl (stereo not drawn) [Compound 2-3] | 100% | 0% | 100% | 33% | 99% | – | – | – | – | –
COCC(=O)N(C)c1c(SC(F)(F)F)c(C#N)nn1-c1c(Cl)cc(C(F)(F)F)cc1Cl [Compound 2-1, 1-(2,6-dichloro-4-trifluoromethylphenyl)-3-cyano-4-trifluoromethylthio-5-(N-methyl)methoxyacetamidopyrazole] | 100% | 0% | 100/100% | 0% | 100/100% | 100% | no vomiting | 93% | no emesis (0/3) | 100%
COCC(=O)N(CC1CC1)c1c(S(=O)(=O)C(F)(F)F)c(C#N)nn1-c1c(Cl)cc(C(F)(F)F)cc1Cl [Compound 27-5] | 100% | 0% | 100/100% | 0% | 100/100% | – | – | – | – | –
CCCN(C(=O)COCC)c1c(SC(F)(F)F)c(C#N)nn1-c1c(Cl)cc(C(F)(F)F)cc1Cl [Compound 13-1] | 61% | 0% | 99% | 0% | 97% | – | – | – | – | –
COC(=O)N(c1c(SC(F)(F)F)c(C#N)nn1-c1c(Cl)cc(C(F)(F)F)cc1Cl)C(C)C [Compound 79-1] | 87% | 0% | 96% | 0% | 86% | – | – | – | – | –
CCOC(=O)N(c1c(SC(F)(F)F)c(C#N)nn1-c1c(Cl)cc(C(F)(F)F)cc1Cl)C(C)C [Compound 80-1] | 99% | 0% | 100% | 0% | 94% | – | – | – | – | –
CCC(=O)N(C)c1c(SC(F)(F)F)c(C#N)nn1-c1c(Cl)cc(C(F)(F)F)cc1Cl [Compound 123-1] | 100% | 25% | 74% | 0% | 0% | – | – | – | – | –
N#Cc1nn(-c2c(Cl)cc(C(F)(F)F)cc2Cl)c(N=CNCC(F)(F)F)c1S(=O)(=O)C(F)(F)F [Compound 230] | 98% | 0% | 100% | 0% | 80% | – | – | – | – | –
N#Cc1nn(-c2c(Cl)cc(C(F)(F)F)cc2Cl)c(N(C(=O)C2CCCO2)C2CC2)c1S(=O)(=O)C(F)(F)F (racemic) [Compound 6-11] | 98% | 0% | 100% | 0% | 98% | – | – | – | – | –
CCN(C(=O)OC)c1c(SC(F)(F)F)c(C#N)nn1-c1c(Cl)cc(C(F)(F)F)cc1Cl [Compound 71-1] | 100% | 50% | 100/100% | 0% | 100/100% | – | – | – | – | –
CCOC(C)C(=O)N(C)c1c(SC(F)(F)F)c(C#N)nn1-c1c(Cl)cc(C(F)(F)F)cc1Cl (racemic) [Compound 116-1] | 100% | 0% | 79% | 0% | 100% | – | – | – | – | –
CCCN(C(=O)OC(C)C)c1c(SC(F)(F)F)c(C#N)nn1-c1c(Cl)cc(C(F)(F)F)cc1Cl [Compound 77-1] | 99% | 0% | 98% | 0% | 10% | – | – | – | – | –
CC(=O)N(C)c1c(S(=O)(=O)C(F)(F)F)c(C#N)nn1-c1c(Cl)cc(C(F)(F)F)cc1Cl [Compound 1-5] | 0% | 33% | 98% | 0% | 84% | – | – | – | – | –
COC(=O)N(C)c1c(SC(F)(F)F)c(C#N)nn1-c1c(Cl)cc(C(F)(F)F)cc1Cl [Compound 67-1] | 53% | 0% | 100/100% | 33% | 100/100% | – | – | – | – | –
CCCOC(=O)N(CC)c1c(SC(F)(F)F)c(C#N)nn1-c1c(Cl)cc(C(F)(F)F)cc1Cl [Compound 74-1] | 100% | 0% | 99% | 0% | 87% | – | – | – | – | –
N#Cc1nn(-c2c(Cl)cc(C(F)(F)F)cc2Cl)c(N(CC2CC2)C(=O)C2CCCO2)c1S(=O)(=O)C(F)(F)F (racemic) [Compound 7-11] | 100% | 0% | 100/100% | 0% | 100/100% | – | – | – | – | –
CCCN(C(=O)OCC)c1c(SC(F)(F)F)c(C#N)nn1-c1c(Cl)cc(C(F)(F)F)cc1Cl [Compound 76-1] | 100% | 0% | 100% | 0% | 86% | – | – | – | – | –
